Columns and labels:
[1] = test system: HepG2 cells; assay: Accumulation of cholesterol precursors / C29-sterols (MAS) in HepG2 cells, GC/MS (SIM); format: cell-based, Human; conditions: for changes in the cholesterol precursor pattern / FF-MAS Dimethylst.-trien (482 m/z) / Methylst.-dien (470 m/z) / T-MAS Dimethylst.-dien (484 m/z) / suppression of the Δ24 reduction step (accumulation of desmosterol) / Dienol (m/z 486) / Enol T-MAS (m/z 484) / Trienol FF-MAS (m/z 482): HepG2 cells; for changes in the cholesterol precursor pattern: at 10 µM, compared to potent inhibitors, data not shown; for FF-MAS Dimethylst.-trien (482 m/z) / Methylst.-dien (470 m/z) / T-MAS Dimethylst.-dien (484 m/z): bile acids 160 µM, 12-h, mean ± SD, ratio to internal standard epicoprostanol; for suppression of the Δ24 reduction step (accumulation of desmosterol): absence of miconazole, 10 µM potent inhibitors or 1 µM tamoxifen for 12 h; for Dienol (m/z 486) / Enol T-MAS (m/z 484) / Trienol FF-MAS (m/z 482): ± SD
Experimental: (§1) Human hepatoma HepG2 cells were cultured to confluency in 60-mm dishes in phenol-red-free Dulbecco's modified Eagle's medium (DMEM) containing Pen-Strep (100 µg/ml), glucose (10 mM), sodium bicarbonate (45 mM) and glutamine (4 mM) supplemented with 10% fetal calf serum as described previously (24). At the beginning of the experiment the medium was changed to serum-free DMEM supplemented with 10% lipid-free "controlled process serum replacement" (CPSR-1). Compounds were added from ethanolic stock solutions to produce final ethanol concentrations of 0.1-0.3% v/v. Controls received the same amount of ethanol. Aminotriazole was added in an aqueous solution. Slices of rat testis (25 µm; 25-50 mg wet weight) were incubated under the same conditions in a shaking water bath (37°C). For isotopomer spectral analysis (ISA) of lathosterol, 1-^13C-acetate was added in an aqueous solution to a final concentration of 1 mM.
(§2) Cells were washed three times with ice cold PBS (pH 7.4) (once with 2 mg/ml BSA and twice with PBS alone). Epicoprostanol (1 µg in 50 µl of hexane) was added as internal standard to each sample. Sterols were extracted in hexane/isopropanol (3:2 v/v; two times with 4 ml). After drying under nitrogen and alkaline hydrolysis (1 N NaOH in 80% ethanol, 1.5 h at 70°C), the sterols were extracted with cyclohexane (two times with 3 ml). After drying under nitrogen, sterols were converted to their trimethylsilyl (TMS) derivatives by adding 100 µl bis(trimethylsilyl)trifluoracetamide (Pierce)/n-decane (1:1; v/v) and heating for 1 h at 70°C in a conical glass tube. This solution (1-2 µl) was used for gas-chromatography/mass-spectrometry (GC/MS). Rat testes (0.05-0.15 g) were homogenized manually, and lipids were extracted in hexane/isopropanol (3:2 v/v; two times with 4 ml). The extracts were deproteinized with acetone (3 ml) and processed as described above. The observed sterol levels in testis were normalized to correspond to 0.1 g of tissue (wet weight).
(§3) Gas-chromatography was done in the splitless mode with temperature programming as follows: 150°C for 1 min, followed by 20°C/min up to 260°C and 10°C/min up to 280°C (hold for 15 min). Mass spectral data were collected either in the full-scan mode (m/z 50-550) or by selective ion monitoring (SIM). For SIM analyses the electron multiplier voltage was raised by 300 V after the elution of lathosterol to increase the sensitivity of detection for lanosterol, dihydrolanosterol, methylsterols, dimethylsterols and plant sterols. The internal standard epicoprostanol was monitored at m/z 370. […] Peak integration was performed manually, and sterols were quantified from SIM analyses against the internal standard. Unless stated otherwise, MAS amounts are given as a percentage of the control.

[2] = test system: liver slices; assay: Influence of bile acids on methylsterols and dimethylsterols in liver slices; format: cell-based; conditions: bile acids 160 µM for 9-h, n=2 for UDCA, CDCA, DCA, n=3 for CA and LCA, ratio to campesterol
Experimental: as §2, §3

[3] = target: T1, Δ24-reductase (Homo sapiens, UniProt Q15392); assay: Δ24-reductase assay (conversion of lanosterol to dihydrolanosterol in the presence of miconazole); format: cell-based; conditions: HepG2 cells; conversion of lanosterol to dihydrolanosterol with added miconazole
T1 construct: endogenous in cells; host or cells: HepG2
T1 sequence (Q15392 23-516): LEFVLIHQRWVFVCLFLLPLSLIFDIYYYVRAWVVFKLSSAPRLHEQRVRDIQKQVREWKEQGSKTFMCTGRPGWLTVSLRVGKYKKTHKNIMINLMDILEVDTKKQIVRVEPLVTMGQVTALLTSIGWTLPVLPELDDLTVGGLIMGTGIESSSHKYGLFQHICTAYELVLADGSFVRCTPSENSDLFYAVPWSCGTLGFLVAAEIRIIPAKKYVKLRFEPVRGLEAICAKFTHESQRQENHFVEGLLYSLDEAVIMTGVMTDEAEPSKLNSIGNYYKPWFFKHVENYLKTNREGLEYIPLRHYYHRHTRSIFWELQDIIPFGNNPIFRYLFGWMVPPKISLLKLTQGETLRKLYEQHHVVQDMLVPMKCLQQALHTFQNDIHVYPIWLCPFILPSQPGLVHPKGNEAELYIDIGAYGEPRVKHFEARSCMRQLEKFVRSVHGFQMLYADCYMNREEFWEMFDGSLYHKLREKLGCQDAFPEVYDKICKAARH
Experimental: HepG2 cells were incubated for 12 h with 10 µM simvastatin (a kind gift from M. Stapff (MSD, Germany)) to deplete cholesterol precursors. Thereafter, the medium was changed to one containing 10 µM simvastatin, 10 µM miconazole (an inhibitor of 14α-demethylation) and 6 µg/dish lanosterol. After 12 h incubation, neutral sterols were extracted as described above, and the samples were monitored for lanosterol (m/z 498 (M^+) and m/z 393 (M-TMSOH-CH3)) and dihydrolanosterol (m/z 500 (M^+) and m/z 395 (M-TMSOH-CH3)) by GC/MS. Dihydrolanosterol was quantified by comparing the ratio of SIM abundances at m/z 395 and 370 (epicoprostanol) against a standard curve constructed from SIM results on mixtures of authentic dihydrolanosterol and epicoprostanol. Desmosterol was quantified analogously by SIM.

[4] = test system: HepG2 cells; assay: Isotopomer spectral analysis (ISA) of flux of 13C-acetate to lathosterol and cholesterol; format: cell-based, Human; conditions: 10 µM, 12 h, 1 mM 1-13C-acetate
Experimental: as §1
Analyses were performed on a Hewlett-Packard GC/MS system (5890 series II GC interfaced to a 5971 mass selective detector) equipped with a DB-XLB column (30 m x 0.25 mm i.d. x 0.25 µm film; J&W). Gas-chromatography was done in the splitless mode with temperature programming as follows: 150°C for 1 min, followed by 20°C/min up to 260°C and 10°C/min up to 280°C (hold for 15 min). Mass spectral data were collected either in the full-scan mode (m/z 50-550) or by selective ion monitoring (SIM). For SIM analyses the electron multiplier voltage was raised by 300 V after the elution of lathosterol to increase the sensitivity of detection for lanosterol, dihydrolanosterol, methylsterols, dimethylsterols and plant sterols. The internal standard epicoprostanol was monitored at m/z 370. In unlabeled experiments, cholesterol precursors and plant sterols were monitored by the following ions: desmosterol (m/z 456; 441 and 351); Δ8-cholestenol (m/z 458); lathosterol (m/z 458); monounsaturated methylsterols (m/z 472); diunsaturated methylsterols (m/z 470); monounsaturated dimethylsterols (m/z 486); diunsaturated dimethylsterols (m/z 484); triunsaturated dimethylsterols (m/z 482); lanosterol (m/z 498 and 393) and dihydrolanosterol (m/z 500 and 395). Peak integration was performed manually, and sterols were quantified from SIM analyses against the internal standard. Unless stated otherwise, MAS amounts are given as a percentage of the control. When 1-^13C-acetate was used in the culture medium for ISA, up to 10 ions (M+0- M+10) were monitored for the TMS derivatives of lathosterol (m/z 458-468), T-MAS (m/z 484-494) and FF-MAS (m/z 482-492).
ISA was carried out as described previously (25) by incubating cells with 1-13C-acetate. The isotopomer distribution in sterols synthesized from 1-^13C-acetate provided the fractional synthesis rate g(t) of the product and the enrichment D of the labeled precursor pool. These parameters were calculated by nonlinear regression analysis as described previously (25,26). Because here we used the molecular ions containing the TMS group for the ISA calculations, the ISA program was modified to correct for the additional C, H and Si atoms from the derivatization reagent. Statistical differences were assessed by Student's t-test and considered significant for P<0.05.

[5] = aminotriazole 20000 µM, tamoxifen 1 µM, combination 20000 + 1 µM, incubation time not clearly stated
[6] = Conc. 1 µM (combinations 1 + 1 µM), 24 h, n=3
[7] = Conc. 10 µM (combinations 10 + 10 µM), 12 h, n=2

C[C@]12CC[C@@H]3c4ccc(O)cc4CC[C@H]3[C@@H]1CC[C@@H]2O [β-estradiol, 17β-Estradiol]
changes in the cholesterol precursor pattern [1]: only minor changes | effect on the accumulation of cholesterol precursors observed with progesterone alone ([1]; β-estradiol 10 µM in combination with progesterone 10 µM): did not alter

C[C@H](CCC(=O)O)[C@H]1CC[C@H]2[C@@H]3CC[C@@H]4C[C@H](O)CC[C@]4(C)[C@H]3C[C@H](O)[C@]12C [DCA, Deoxycholic acid]
FF-MAS Dimethylst.-trien (482 m/z) ([1]; n=3): 226 ± 17 % of control | Methylst.-dien (470 m/z) ([1]; n=3): 211 ± 6 % of control | T-MAS Dimethylst.-dien (484 m/z) ([1]; n=3): 320 ± 32 % of control | FF-MAS Dimethylst.-trien (482 m/z) [2]: 103 % of control | Methylst.-dien (470 m/z) [2]: 144 % of control | T-MAS Dimethylst.-dien (484 m/z) [2]: 210 % of control

C[C@H](CCC(=O)O)[C@H]1CC[C@H]2[C@@H]3CC[C@@H]4C[C@H](O)CC[C@]4(C)[C@H]3CC[C@]12C [LCA, Lithocholic acid]
FF-MAS Dimethylst.-trien (482 m/z) ([1]; n=3): 453 ± 88 % of control | Methylst.-dien (470 m/z) ([1]; n=3): 459 ± 29 % of control | T-MAS Dimethylst.-dien (484 m/z) ([1]; n=3): 744 ± 155 % of control | FF-MAS Dimethylst.-trien (482 m/z) [2]: 91 % of control | Methylst.-dien (470 m/z) [2]: 67 % of control | T-MAS Dimethylst.-dien (484 m/z) [2]: 172 % of control

C[C@]12CC[C@H]3[C@@H](CCC4=CC(=O)CC[C@@]43C)[C@@H]1CC[C@@H]2O [testosterone, Testosterone]
changes in the cholesterol precursor pattern [1]: only minor changes

CC/C(=C(\c1ccccc1)c1ccc(OCCN(C)C)cc1)c1ccccc1 [Tamoxifen]
suppression of the Δ24 reduction step (accumulation of desmosterol) [1]: strongly suppressed | Dienol (m/z 486) [1, 5]: 34 ± 3 % of control | Enol T-MAS (m/z 484) [1, 5]: 617 ± 47 % of control | Trienol FF-MAS (m/z 482) [1, 5]: 297 ± 41 % of control

CC(=O)[C@H]1CC[C@H]2[C@@H]3CC=C4C[C@@H](O)CC[C@]4(C)[C@H]3CC[C@]12C [Pregnenolone]
Dienol (m/z 486) [1, 6]: 110 ± 9 % of control | Enol T-MAS (m/z 484) [1, 6]: 223 ± 11 % of control | Trienol FF-MAS (m/z 482) [1, 6]: 166 ± 28 % of control | Dienol (m/z 486) [1, 7]: 4 ± 1 % of control | Enol T-MAS (m/z 484) [1, 7]: 308 ± 40 % of control | Trienol FF-MAS (m/z 482) [1, 7]: 213 ± 15 % of control | suppression of the Δ24 reduction step (accumulation of desmosterol) [1]: strongly suppressed | order of suppression of Δ24 reduction [3]: pregnenolone > progesterone > 17α-OH-pregnenolone >> 17α-OH-progesterone | lowering of the total amount of lathosterol [4]: ca. 50% | reduction of de novo lathosterol synthesis [4]: more than 60%

Nc1nc[nH]n1 [Aminotriazole]
Dienol (m/z 486) [1, 5]: 725 ± 65 % of control | Enol T-MAS (m/z 484) [1, 5]: 610 ± 20 % of control | Trienol FF-MAS (m/z 482) [1, 5]: 229 ± 18 % of control

From patent EP1216701A1, “Process to increase the concentration of meiosis-activating sterols (MAS) in the cholesterol synthesis and the use of potent inhibitors in the process” (Schering Aktiengesellschaft, priority 2000, dated 2002)
